Consider one molecule from article PMC11733953, “Identification of a Potent CDK8 Inhibitor Using Structure-Based Virtual Screening” (Journal of Chemical Information and Modeling, 2024).

For the assay, the target named is Cyclin-dependent kinase 8 (CDK8) (Homo sapiens, UniProt P49336). Kind of assay: LanthaScreen Eu kinase binding assay (TR-FRET displacement of Tracer […]), dose-response; […] inhibition at […] in 60-kinase panel. In general terms: Time-resolved FRET reads energy transfer from a long-lived donor to a nearby acceptor.

Each structure is given as a SMILES string.

Sequence of Cyclin-dependent kinase 8 (CDK8) (P49336 whole entry): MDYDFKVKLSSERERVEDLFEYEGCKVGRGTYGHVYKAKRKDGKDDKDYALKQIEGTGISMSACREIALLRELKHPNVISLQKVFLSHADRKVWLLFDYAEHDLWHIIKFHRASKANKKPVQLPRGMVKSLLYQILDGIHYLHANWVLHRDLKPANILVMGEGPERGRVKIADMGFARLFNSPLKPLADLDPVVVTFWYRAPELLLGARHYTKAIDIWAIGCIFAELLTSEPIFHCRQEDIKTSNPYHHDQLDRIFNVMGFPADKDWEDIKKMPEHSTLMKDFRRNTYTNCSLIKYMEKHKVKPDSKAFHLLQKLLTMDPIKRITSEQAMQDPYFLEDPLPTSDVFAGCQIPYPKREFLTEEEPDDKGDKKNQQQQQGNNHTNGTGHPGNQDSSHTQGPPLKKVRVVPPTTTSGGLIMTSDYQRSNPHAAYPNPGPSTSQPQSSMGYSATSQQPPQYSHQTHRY
Sequence of Cyclin-dependent kinase 8 (CDK8) (P24863 whole entry partner): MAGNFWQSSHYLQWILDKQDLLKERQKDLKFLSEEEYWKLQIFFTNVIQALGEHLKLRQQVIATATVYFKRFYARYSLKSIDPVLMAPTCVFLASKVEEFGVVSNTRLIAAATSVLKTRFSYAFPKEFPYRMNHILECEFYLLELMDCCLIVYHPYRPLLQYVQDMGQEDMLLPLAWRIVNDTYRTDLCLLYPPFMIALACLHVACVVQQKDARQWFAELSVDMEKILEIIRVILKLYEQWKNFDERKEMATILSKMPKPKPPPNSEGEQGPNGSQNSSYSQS

For the molecule `O=C(Cc1nnc(-c2ccc3ncccc3c2)o1)NCc1ccc(F)cc1` [P162-0948], the IC50 came to 50.4 nM.

A word on the IC50: it is the point on the concentration scale where inhibition reaches its midpoint. A higher IC50 goes with a need for much substance.
